Laboratory results published in ChEMBL document CHEMBL2380227, “Ginkgetin induces apoptosis via activation of caspase and inhibition of survival genes in PC-3 prostate cancer cells” (Bioorg Med Chem Lett, 2013).
The source made the active and inactive calls.

What was measured:
[1] = test system: PC-3; assay: Cell cycle arrest in human PC3 cells assessed as sub-G1 accumulation after 24 hrs by propidium iodide staining-based flow cytometry; assay type: functional
[2] = test system: PC-3; assay: Induction of apoptosis in human PC3 cells assessed as supression of Bcl-XL expression at 15 to 30 uM after 24 hrs by Western blotting; assay type: functional, cell-based
[3] = test system: PC-3; assay: Induction of apoptosis in human PC3 cells assessed as increase in caspase-3 cleavage at 15 to 30 uM after 24 hrs by Western blotting; assay type: functional, cell-based
[4] = test system: PC-3; assay: Induction of apoptosis in human PC3 cells assessed as supression of Bcl-XL mRNA expression at 15 to 30 uM after 24 hrs by RT-PCR analysis; assay type: functional, cell-based
[5] = test system: PC-3; assay: Induction of apoptosis in human PC3 cells assessed as increase in PARP cleavage at 30 uM after 24 hrs by Western blotting in presence of Z-DEVD-FMK; assay type: functional, cell-based
[6] = test system: PC-3; assay: Induction of apoptosis in human PC3 cells assessed as supression of Cyclin-D1 expression at 15 to 30 uM after 24 hrs by Western blotting; assay type: functional, cell-based
[7] = test system: PC-3; assay: Induction of apoptosis in human PC3 cells assessed as supression of Cyclin-D1 mRNA expression at 15 to 30 uM after 24 hrs by RT-PCR analysis; assay type: functional, cell-based
[8] = test system: PC-3; assay: Cell cycle arrest in human PC3 cells assessed as sub-G1 accumulation at 30 uM after 24 hrs by propidium iodide staining-based flow cytometry in presence of Z-DEVD-FMK; assay type: functional
[9] = test system: PC-3; assay: Induction of apoptosis in human PC3 cells assessed as cell shrinkage at 15 to 30 uM after 24 hrs by inverted microscopy; assay type: functional, cell-based
[10] = test system: PC-3; assay: Induction of apoptosis in human PC3 cells assessed as increase in caspase-3 cleavage at 15 to 30 uM after 24 hrs by immunofluorescence assay relative to control; assay type: functional, cell-based
[11] = test system: PC-3; assay: Induction of apoptosis in human PC3 cells assessed as supression of Bcl-2 expression at 15 to 30 uM after 24 hrs by Western blotting; assay type: functional, cell-based
[12] = test system: PC-3; assay: Induction of apoptosis in human PC3 cells assessed as increase in caspase-3 cleavage at 30 uM after 24 hrs by Western blotting in presence of Z-DEVD-FMK; assay type: functional, cell-based
[13] = test system: PC-3; assay: Induction of apoptosis in human PC3 cells assessed as supression of survivin mRNA expression at 15 to 30 uM after 24 hrs by RT-PCR analysis; assay type: functional, cell-based
[14] = test system: PC-3; assay: Induction of apoptosis in human PC3 cells assessed as supression of Bcl-2 mRNA expression at 15 to 30 uM after 24 hrs by RT-PCR analysis; assay type: functional, cell-based
[15] = test system: PC-3; assay: Cytotoxicity against human PC3 cells after 24 hrs by MTT assay; assay type: functional, cell-based
[16] = test system: PC-3; assay: Induction of apoptosis in human PC3 cells assessed as supression of survivin expression at 15 to 30 uM after 24 hrs by Western blotting; assay type: functional, cell-based
[17] = test system: PC-3; assay: Induction of apoptosis in human PC3 cells assessed as apoptotic bodies at 15 to 30 uM after 24 hrs by inverted microscopy; assay type: functional, cell-based
[18] = test system: PC-3; assay: Induction of apoptosis in human PC3 cells assessed as increase in PARP cleavage at 15 to 30 uM after 24 hrs by Western blotting; assay type: functional, cell-based

Measured: Activity

COc1cc(O)c2c(=O)cc(-c3ccc(OC)c(-c4c(O)cc(O)c5c(=O)cc(-c6ccc(O)cc6)oc45)c3)oc2c1
active: [1] Dose-dependent effect | [2] | [3] | [4] | [5] | [6] | [7] | [8] | [9] | [10] | [11] | [12] | [13] | [14] | [15] Dose-dependent effect | [16] | [17] | [18]
